Measured values: US20090312406A1, “COUMARIN COMPOUNDS AND THEIR USE FOR TREATING VIRAL INFECTION” (priority 2008, published 2009)

Each compound was assayed on Influenza A/WSN/33 (H1N1) virus (assay: In vitro anti-influenza virus assay (neutralization test), cytopathic effect on MDCK cells). Details: MDCK cells, 72 h, lower bound (10 nM), upper in μM, read-out: IC50 (concentration reducing virus-induced cytopathic effect by 50%).
Type: cell-based
Experimental: Anti-influenza activities of the coumarin compounds were evaluated by measuring the ability of a test compound to inhibit the cytopathic effect induced by an influenza virus on MDCK cells. The 96-well tissue culture plates were seeded with 200 μL of MDCK cells at a concentration of 1.1×10^5 cells/mL in DMEM with 10% fetal bovine serum (FBS). The plates were incubated for 24-30 h at 37° C. and were used at about 90% confluency. Influenza A/WSN/33 (H1N1) virus (100 TCID50) was added to the cells and incubated at 35° C. for 1 h. After adsorption, the infected cell plates were overlaid with 50 μL of DMEM plus 2% FBS and a test compound with different concentrations. The plate was incubated at 35° C. for 72 h. At the end of incubation, the plates were fixed by the addition of 100 μL of 4% formaldehyde for 1 h at room temperature. After the removal of formaldehyde, the plates were stained with 0.1% crystal violet for 15 min at room temperature. The plates were washed and dried, and the density of the well was measured at 570 nm. The concentration required for a test compound to reduce the virus-induced cytopathic effect (CPE) by 50% relative to the virus control was expressed as IC50.
Compounds 1 and 95 were also tested on various influenza virus strains. Amantadine or Relenza was also tested for comparison. IC50 is defined as the concentration required for a test compound to reduce the virus-induced cytopathic effect (CPE) by 50% relative to the virus control.
Cc1cc(=O)oc2c1ccc1oc(C(=O)c3ccccc3)c(-c3ccc([N+](=O)[O-])cc3)c12 [Compound 145] gave an IC50 of 10 to 999 nM.
For Cc1cc(=O)oc2c1ccc1oc(C(=O)c3ccccc3)c(-c3cccc(N)c3)c12 [Compound 146], the IC50 was 10 to 999 nM.
With Cc1cc(=O)oc2c1ccc1oc(C(=O)c3ccccc3)c(-c3cc(F)cc(F)c3)c12 [Compound 148] the IC50 was 10 to 999 nM.
For Cc1cc(=O)oc2c1ccc1oc(C(=O)c3ccccc3)c(-c3cc(Br)cc(Br)c3)c12 [Compound 150], the IC50 was 10 to 999 nM.
For CCCc1c(C(=O)c2ccccc2)oc2ccc3c(C)cc(=O)oc3c12 [Compound 155], the IC50 was 10 to 999 nM.
Work on CCCCCc1c(C(=O)c2ccccc2)oc2ccc3c(C)cc(=O)oc3c12 [Compound 156] yielded an IC50 of 10 to 999 nM.
Work on CCCCCCc1c(C(=O)c2ccccc2)oc2ccc3c(C)cc(=O)oc3c12 [Compound 157] yielded an IC50 of 10 to 999 nM.
Cc1cc(=O)oc2c1ccc1oc(C(=O)c3ccccc3)c(-c3ccco3)c12 [Compound 159] showed an IC50 of 10 to 999 nM.
Work on Cc1cc(=O)oc2c1ccc1oc(C(=O)c3ccccc3)c(-c3cccs3)c12 [Compound 160] yielded an IC50 of 10 to 999 nM.
For Cc1cc(=O)oc2c1ccc1oc(C(=S)c3ccccc3)c(-c3ccccc3)c12 [Compound 166], the IC50 was 10 to 999 nM.
In the case of Cc1cc(=O)oc2c1ccc1oc(C(O)c3ccccc3)c(-c3ccccc3)c12 (stereo not shown) [Compound 172], the IC50 is reported as 10 to 999 nM.
In the case of Cc1cc(=O)oc2c1ccc1oc(Cc3ccccc3)c(-c3ccccc3)c12 [Compound 173], the IC50 is reported as 10 to 999 nM.
For Cc1cc(=O)oc2c1ccc1oc(C(=O)c3cccc(OCC4CC4)c3)c(-c3ccccc3)c12 [Compound 179], the IC50 was 10 to 999 nM.
CC(=O)Oc1cccc(C(=O)c2oc3ccc4c(C)cc(=O)oc4c3c2-c2ccccc2)c1 [Compound 180] was tested, and the IC50 was 10 to 999 nM.
With Cc1cc(=O)oc2c1ccc1oc(C(=O)c3cccc(OCCCCO)c3)c(-c3ccccc3)c12 [Compound 186] the IC50 was 10 to 999 nM.
Work on Cc1cc(=O)oc2c1ccc1oc(C(=O)c3cccc(OCCCCCCO)c3)c(-c3ccccc3)c12 [Compound 188] yielded an IC50 of 10 to 999 nM.
For Cc1cc(=O)oc2c1ccc1oc(C(=O)c3cccc(OCCO[Si](C)(C)C(C)(C)C)c3)c(-c3ccccc3)c12 [Compound 189], the IC50 was 10 to 999 nM.
Cc1cc(=O)oc2c1ccc1oc(C(=O)c3ccccc3)c(-c3cccc4ccccc34)c12 [Compound 206] gave an IC50 of 10 to 999 nM.
Compound Cc1cc(=O)oc2c1ccc1oc(C(=O)c3cccc(Cl)c3)c(-c3ccc(F)cc3)c12 [Compound 222] has an IC50 of 10 to 999 nM.
Work on C#CCOc1cccc(C(=O)c2oc3ccc4c(C)cc(=O)oc4c3c2-c2ccccc2)c1 [Compound 233] yielded an IC50 of 10 to 999 nM.
Cc1cc(=O)oc2c1ccc1oc(C(O)c3ccccc3)c(-c3cccc(C#N)c3)c12 (stereo not shown) [Compound 234] gave an IC50 of 10 to 999 nM.
Work on CC(=O)OCCCCCCOc1cccc(C(=O)c2oc3ccc4c(C)cc(=O)oc4c3c2-c2ccccc2)c1 [Compound 237] yielded an IC50 of 10 to 999 nM.
For COc1cccc(C(=O)c2oc3ccc4c(C)cc(=O)oc4c3c2-c2ccccc2F)c1 [Compound 245], the IC50 was 10 to 999 nM.
For COc1cccc(C(=O)c2oc3ccc4c(C)cc(=O)oc4c3c2-c2cccc(F)c2)c1 [Compound 246], the IC50 was 10 to 999 nM.
COc1cccc(C(=O)c2oc3ccc4c(C)cc(=O)oc4c3c2-c2cccc(C)c2)c1 [Compound 247] showed an IC50 of 10 to 999 nM.
With COc1cccc(C(=O)c2oc3ccc4c(C)cc(=O)oc4c3c2-c2ccc(Br)cc2)c1 [Compound 252] the IC50 was 10 to 999 nM.

Same assay, conditions: MDCK cells, 72 h, ranges given, read-out: IC50 (concentration reducing virus-induced cytopathic effect by 50%)
With Cc1cc(=O)oc2c1ccc1oc(C(=O)c3ccccc3)c(-c3ccc4ccccc4c3)c12 [Compound 147] the IC50 was 1000 to 5900 nM.
With Cc1cc(=O)oc2c1ccc1oc(C(=O)c3ccccc3)c(-c3cc(Cl)cc(Cl)c3)c12 [Compound 149] the IC50 was 1000 to 5900 nM.
Cc1cc(=O)oc2c1ccc1oc(C(=O)c3ccccc3)cc12 [Compound 153] gave an IC50 of 1000 to 5900 nM.
With Cc1cc(=O)oc2c1ccc1oc(C(=O)c3ccccc3)c(C)c12 [Compound 154] the IC50 was 1000 to 5900 nM.
Cc1cc(=O)oc2c1ccc1oc(C(=O)c3ccccc3)c(/C=C/c3ccccc3)c12 [Compound 161] gave an IC50 of 1000 to 5900 nM.
Cc1cc(=O)oc2c1ccc1oc(C(=O)c3ccccc3)c(C3CCCCC3)c12 [Compound 165] gave an IC50 of 1000 to 5900 nM.
In the case of Cc1cc(=O)oc2c1ccc1oc(/C(=N/O)c3ccccc3)c(-c3ccccc3)c12 [Compound 171], the IC50 is reported as 1000 to 5900 nM.
Cc1cc(=O)oc2c1ccc1oc(C(=O)c3cccc(OCCOCCOCCO)c3)c(-c3ccccc3)c12 [Compound 177] showed an IC50 of 6000 to 25000 nM.
With Cc1cc(=O)oc2c1ccc1oc(C(=O)c3cccc(OCCOCCOCCOCCCl)c3)c(-c3ccccc3)c12 [Compound 178] the IC50 was 1000 to 5900 nM.
Cc1cc(=O)oc2c1ccc1oc(C(=O)c3cccc(OC(=O)C4CC4)c3)c(-c3ccccc3)c12 [Compound 181] was tested, and the IC50 was 1000 to 5900 nM.
C=CC(=O)Oc1cccc(C(=O)c2oc3ccc4c(C)cc(=O)oc4c3c2-c2ccccc2)c1 [Compound 182] gave an IC50 of 1000 to 5900 nM.
Compound Cc1cc(=O)oc2c1ccc1oc(C(=O)c3cccc(OCCN[C@@]45C[C@@H]6C[C@@H](C[C@@](O)(C6)C4)C5)c3)c(-c3ccccc3)c12 [Compound 183] has an IC50 of 6000 to 25000 nM.
Cc1cc(=O)oc2c1ccc1oc(C(=O)c3cccc(OCCO)c3)c(-c3ccccc3)c12 [Compound 184] showed an IC50 of 6000 to 25000 nM.
For Cc1cc(=O)oc2c1ccc1oc(C(=O)c3cccc(OCCCO)c3)c(-c3ccccc3)c12 [Compound 185], the IC50 was 1000 to 5900 nM.
Work on Cc1cc(=O)oc2c1ccc1oc(C(=O)c3cccc(OCCCCCO)c3)c(-c3ccccc3)c12 [Compound 187] yielded an IC50 of 1000 to 5900 nM.
In the case of Cc1cc(=O)oc2c1ccc1oc(C(=O)c3cccc(OCCCO[Si](C)(C)C(C)(C)C)c3)c(-c3ccccc3)c12 [Compound 190], the IC50 is reported as 1000 to 5900 nM.
Cc1cc(=O)oc2c1ccc1oc(C(=O)c3cccc(OCCCCCCO[Si](C)(C)C(C)(C)C)c3)c(-c3ccccc3)c12 [Compound 193] was tested, and the IC50 was 1000 to 5900 nM.
Compound CC(=O)OCC1C(OCCOc2cccc(C(=O)c3oc4ccc5c(C)cc(=O)oc5c4c3-c3ccccc3)c2)OC(OC(C)=O)C(OC(C)=O)C1OC(C)=O (stereo not shown) [Compound 194] has an IC50 of 6000 to 25000 nM.
Cc1cc(=O)oc2c1ccc1oc(C(=O)c3cccc(OCCOC4OC(O)C(O)C(O)C4CO)c3)c(-c3ccccc3)c12 (stereo not shown) [Compound 195] gave an IC50 of 6000 to 25000 nM.
Compound CC(=O)OCC1OC(OCCCOc2cccc(C(=O)c3oc4ccc5c(C)cc(=O)oc5c4c3-c3ccccc3)c2)C(OC(C)=O)C(OC(C)=O)C1OC(C)=O (stereo not shown) [Compound 196] has an IC50 of 6000 to 25000 nM.
In the case of Cc1cc(=O)oc2c1ccc1oc(C(=O)c3cccc(OCCCOC4OC(CO)C(O)C(O)C4O)c3)c(-c3ccccc3)c12 (stereo not shown) [Compound 197], the IC50 is reported as 6000 to 25000 nM.
With Cc1cc(=O)oc2c1ccc1oc(C(=O)c3cccc(OC(=O)C#Cc4ccccc4)c3)c(-c3ccccc3)c12 [Compound 201] the IC50 was 1000 to 5900 nM.
Work on C#CCCC(=O)Oc1cccc(C(=O)c2oc3ccc4c(C)cc(=O)oc4c3c2-c2ccccc2)c1 [Compound 202] yielded an IC50 of 1000 to 5900 nM.
Compound CCCCCC#CC(=O)Oc1cccc(C(=O)c2oc3ccc4c(C)cc(=O)oc4c3c2-c2ccccc2)c1 [Compound 203] has an IC50 of 1000 to 5900 nM.
In the case of Cc1cc(=O)oc2c1ccc1oc(C(=O)O)c(-c3ccccc3)c12 [Compound 205], the IC50 is reported as 1000 to 5900 nM.
Cc1cc(=O)oc2c1ccc1oc(C(=O)c3ccccc3)c(-c3cccc(C(=O)O)c3)c12 [Compound 207] was tested, and the IC50 was 1000 to 5900 nM.
Cc1cc(=O)oc2c1ccc1oc(C(=O)c3ccc([N+](=O)[O-])cc3)c(-c3ccc(Br)cc3)c12 [Compound 216] showed an IC50 of 6000 to 25000 nM.
Cc1cc(=O)oc2c1ccc1oc(C(=O)c3cccc(Cl)c3)c(-c3ccc(Br)cc3)c12 [Compound 217] gave an IC50 of 6000 to 25000 nM.
In the case of Cc1cc(=O)oc2c1ccc1oc(C(=O)c3ccc4ccccc4c3)c(-c3ccc(F)cc3)c12 [Compound 220], the IC50 is reported as 1000 to 5900 nM.
Compound Cc1cc(=O)oc2c1ccc1oc(C(=O)c3cc(F)ccc3F)c(-c3ccc(F)cc3)c12 [Compound 221] has an IC50 of 1000 to 5900 nM.
Work on Cc1cc(=O)oc2c1ccc1oc(C(=O)c3ccccc3)c(-c3ccc(Cl)c(Cl)c3)c12 [Compound 224] yielded an IC50 of 6000 to 25000 nM.
Work on Cc1cc(=O)oc2c1ccc1oc(C(O)c3ccccc3)cc12 (stereo not shown) [Compound 226] yielded an IC50 of 1000 to 5900 nM.
With Cc1cc(=O)oc2c1ccc1[nH]c3ccccc3c12 [Compound 231] the IC50 was 6000 to 25000 nM.
Cc1cc(=O)oc2c1ccc1oc(C(=O)c3cccc(OCCCCI)c3)c(-c3ccccc3)c12 [Compound 236] gave an IC50 of 1000 to 5900 nM.
Cc1cc(=O)oc2c1ccc1oc(C(=O)c3ccccc3)c(-c3ccc(O)cc3)c12 [Compound 239] gave an IC50 of 1000 to 5900 nM.
Cc1cc(=O)oc2c1ccc1oc(C(=O)c3cccc(OCCN4CCc5ccccc5C4)c3)c(-c3ccccc3)c12 [Compound 240] showed an IC50 of 1000 to 5900 nM.
With Cc1cc(=O)oc2c1ccc1oc(C(=O)c3cccc(OCCN4Cc5ccccc5C4)c3)c(-c3ccccc3)c12 [Compound 241] the IC50 was 1000 to 5900 nM.
Compound CCCCCCCCOc1cccc(C(=O)c2oc3ccc4c(C)cc(=O)oc4c3c2-c2ccccc2)c1 [Compound 243] has an IC50 of 6000 to 25000 nM.
COc1ccc(-c2c(C(=O)c3ccccc3)oc3ccc4c(C)cc(=O)oc4c23)cc1 [Compound 248] gave an IC50 of 6000 to 25000 nM.
Cc1cc(=O)oc2c1ccc1oc(C(=O)c3cccc(OP(=O)(O)O)c3)c(-c3ccccc3)c12 [Compound 249] was tested, and the IC50 was 1000 to 5900 nM.
In the case of Cc1cc(=O)oc2c1ccc1oc(C(=O)c3cccs3)c(-c3ccc(Br)cc3)c12 [Compound 254], the IC50 is reported as 1000 to 5900 nM.
